The NIST ThermoML archive (doi:10.1016/j.jct.2008.02.020)

Settings: Liquid, Buoyancy - hydrostatic balance with magnetic suspension - one sinker

Cc1ccc(Cl)cc1Cl [1,3-dichloro-4-methylbenzene]
Settings | mass density [kg/m3]
263.15 K, 97.86 kPa | 1280.75
263.15 K, 1123.9 kPa | 1281.41
263.15 K, 2150.1 kPa | 1282.08
263.15 K, 3971.8 kPa | 1283.26
263.15 K, 6167.5 kPa | 1284.65
263.15 K, 7898.5 kPa | 1285.75
263.15 K, 9974.7 kPa | 1287.06
273.15 K, 101.87 kPa | 1270.26
273.15 K, 1168.7 kPa | 1270.98
273.15 K, 2038.5 kPa | 1271.57
273.15 K, 4184.1 kPa | 1273.02
273.15 K, 5901.9 kPa | 1274.17
273.15 K, 7917 kPa | 1275.5
273.15 K, 10080 kPa | 1276.92
273.15 K, 11859 kPa | 1278.07
273.15 K, 14024 kPa | 1279.46
273.15 K, 16108 kPa | 1280.79
273.15 K, 17842 kPa | 1281.88
273.15 K, 20076 kPa | 1283.28
273.15 K, 22132 kPa | 1284.55
273.15 K, 24150 kPa | 1285.79
273.15 K, 26076 kPa | 1286.95
273.15 K, 27913 kPa | 1288.06
273.15 K, 29994 kPa | 1289.3
293.15 K, 97.54 kPa | 1249.31
293.16 K, 1126.7 kPa | 1250.08
293.17 K, 1886.8 kPa | 1250.65
293.18 K, 4191.9 kPa | 1252.36
293.19 K, 6062.4 kPa | 1253.73
293.2 K, 7970.1 kPa | 1255.11
293.21 K, 10165 kPa | 1256.68
293.22 K, 12144 kPa | 1258.09
293.23 K, 14101 kPa | 1259.46
293.24 K, 16101 kPa | 1260.85
293.25 K, 18110 kPa | 1262.23
293.26 K, 20077 kPa | 1263.55
293.27 K, 22136 kPa | 1264.94
293.28 K, 24103 kPa | 1266.25
293.29 K, 25962 kPa | 1267.48
293.3 K, 27896 kPa | 1268.74
293.31 K, 29829 kPa | 1270
313.15 K, 107.85 kPa | 1228.39
313.15 K, 1095.7 kPa | 1229.21
313.15 K, 2082.7 kPa | 1230.02
313.15 K, 4107.2 kPa | 1231.67
313.15 K, 5854.6 kPa | 1233.08
313.15 K, 8123.1 kPa | 1234.89
313.15 K, 10162 kPa | 1236.49
313.15 K, 12124 kPa | 1238.01
313.15 K, 13892 kPa | 1239.36
313.15 K, 16106 kPa | 1241.04
313.15 K, 18086 kPa | 1242.52
313.15 K, 20144 kPa | 1244.04
313.15 K, 22020 kPa | 1245.42
313.15 K, 24014 kPa | 1246.86
313.15 K, 25938 kPa | 1248.23
313.15 K, 27776 kPa | 1249.54
313.15 K, 29828 kPa | 1250.98
333.15 K, 101.71 kPa | 1207.38
333.15 K, 1081.7 kPa | 1208.28
333.15 K, 1877.8 kPa | 1209
333.15 K, 3933.1 kPa | 1210.85
333.15 K, 5993.1 kPa | 1212.68
333.15 K, 8164.3 kPa | 1214.58
333.15 K, 10140 kPa | 1216.29
333.15 K, 12129 kPa | 1217.98
333.15 K, 14157 kPa | 1219.68
333.15 K, 16129 kPa | 1221.31
333.15 K, 18148 kPa | 1222.96
333.15 K, 20046 kPa | 1224.49
333.15 K, 22094 kPa | 1226.12
333.15 K, 24026 kPa | 1227.64
333.15 K, 25826 kPa | 1229.04
333.15 K, 27856 kPa | 1230.61
333.15 K, 29702 kPa | 1232.01
353.15 K, 101.05 kPa | 1186.2
353.15 K, 1224 kPa | 1187.34
353.15 K, 2054.2 kPa | 1188.18
353.15 K, 4178 kPa | 1190.3
353.15 K, 6020.6 kPa | 1192.11
353.15 K, 8131.5 kPa | 1194.14
353.15 K, 10113 kPa | 1196.02
353.15 K, 12081 kPa | 1197.87
353.15 K, 14118 kPa | 1199.74
353.15 K, 16085 kPa | 1201.53
353.15 K, 18058 kPa | 1203.29
353.15 K, 19980 kPa | 1204.98
353.15 K, 22046 kPa | 1206.78
353.15 K, 24056 kPa | 1208.5
353.15 K, 26025 kPa | 1210.17
353.15 K, 27872 kPa | 1211.71
353.15 K, 29804 kPa | 1213.32
373.15 K, 99.43 kPa | 1164.78
373.15 K, 1084.4 kPa | 1165.89
373.15 K, 1956.5 kPa | 1166.87
373.15 K, 4135.4 kPa | 1169.29
373.15 K, 5954.6 kPa | 1171.27
373.15 K, 7981.3 kPa | 1173.43
373.15 K, 10128 kPa | 1175.67
373.15 K, 11936 kPa | 1177.54
373.15 K, 14002 kPa | 1179.62
373.15 K, 15987 kPa | 1181.6
373.15 K, 18116 kPa | 1183.68
373.15 K, 19990 kPa | 1185.5
373.15 K, 22002 kPa | 1187.4
373.15 K, 23973 kPa | 1189.24
373.15 K, 26011 kPa | 1191.11
373.15 K, 28050 kPa | 1192.96
373.15 K, 29922 kPa | 1194.64
393.15 K, 100.49 kPa | 1143.03
393.15 K, 1179.5 kPa | 1144.4
393.15 K, 1991.5 kPa | 1145.42
393.15 K, 3926.6 kPa | 1147.8
393.15 K, 5963.8 kPa | 1150.27
393.15 K, 7963.7 kPa | 1152.64
393.15 K, 10152 kPa | 1155.17
393.15 K, 12148 kPa | 1157.43
393.15 K, 14137 kPa | 1159.65
393.15 K, 16116 kPa | 1161.81
393.15 K, 17917 kPa | 1163.75
393.15 K, 20141 kPa | 1166.09
393.15 K, 22096 kPa | 1168.12
393.15 K, 24174 kPa | 1170.23
393.15 K, 26160 kPa | 1172.22
393.15 K, 27968 kPa | 1174
393.15 K, 29927 kPa | 1175.92
413.15 K, 100.59 kPa | 1120.92
413.15 K, 1151.6 kPa | 1122.41
413.15 K, 2145.3 kPa | 1123.81
413.15 K, 3981.3 kPa | 1126.35
413.15 K, 6146.6 kPa | 1129.27
413.15 K, 8164.1 kPa | 1131.92
413.15 K, 10060 kPa | 1134.35
413.15 K, 11927 kPa | 1136.7
413.15 K, 14145 kPa | 1139.43
413.15 K, 16150 kPa | 1141.84
413.15 K, 18124 kPa | 1144.17
413.15 K, 20124 kPa | 1146.49
413.15 K, 22139 kPa | 1148.77
413.15 K, 24073 kPa | 1150.92
413.15 K, 26091 kPa | 1153.13
413.15 K, 29979 kPa | 1157.28
433.15 K, 95.11 kPa | 1098.16
433.15 K, 1136.7 kPa | 1099.85
433.15 K, 2147.7 kPa | 1101.45
433.15 K, 3917.8 kPa | 1104.21
433.15 K, 6150.5 kPa | 1107.59
433.15 K, 8148.5 kPa | 1110.53
433.15 K, 10046 kPa | 1113.26
433.15 K, 12142 kPa | 1116.17
433.15 K, 14151 kPa | 1118.91
433.15 K, 16187 kPa | 1121.62
433.15 K, 18165 kPa | 1124.19
433.15 K, 20168 kPa | 1126.73
433.15 K, 22138 kPa | 1129.18
433.15 K, 24093 kPa | 1131.56
433.15 K, 26057 kPa | 1133.91
433.15 K, 28003 kPa | 1136.2
433.15 K, 29939 kPa | 1138.43
453.15 K, 1198.5 kPa | 1076.81
453.15 K, 2151.7 kPa | 1078.53
453.15 K, 4164.4 kPa | 1082.08
453.15 K, 6169.6 kPa | 1085.47
453.15 K, 8024.4 kPa | 1088.53
453.15 K, 10086 kPa | 1091.85
453.15 K, 12119 kPa | 1094.99
453.15 K, 14144 kPa | 1098.05
453.15 K, 16087 kPa | 1100.89
453.15 K, 19984 kPa | 1106.47
453.15 K, 22044 kPa | 1109.28
453.15 K, 24087 kPa | 1112.01
453.15 K, 26125 kPa | 1114.68
453.15 K, 28000 kPa | 1117.08
453.15 K, 29897 kPa | 1119.49
473.15 K, 1132.5 kPa | 1052.66
473.15 K, 2054.3 kPa | 1054.57
473.15 K, 4181.9 kPa | 1058.81
473.15 K, 5970.9 kPa | 1062.27
473.15 K, 8153.5 kPa | 1066.34
473.15 K, 10138 kPa | 1069.91
473.15 K, 12109 kPa | 1073.33
473.15 K, 14125 kPa | 1073.33
473.15 K, 16133 kPa | 1080.01
473.15 K, 18132 kPa | 1083.19
473.15 K, 20147 kPa | 1086.3
473.15 K, 22083 kPa | 1089.22
473.15 K, 24078 kPa | 1092.15
473.15 K, 26043 kPa | 1094.96
473.15 K, 27886 kPa | 1097.55
473.15 K, 29893 kPa | 1100.31
